# Experimental data: patent US12071425B2 (Genentech, Inc., priority 2018, dated 2024)
# Counter-ions that a name gives are not always drawn.
# Molecular target: kinase domain of IRE1 alpha (His-tagged kinase dead construct KR, AA G547-L977, D688N) (Homo sapiens (Human), UniProt O75460, D688N)
# Assay: IRE1α TR-FRET competition binding assay
# Settings: competition with Kinase Tracer 236, 0.1 μM; one hour at room temperature
# How it was run: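 Sf9-expressed kinase-dead KR construct (0.006 μM final) pre-incubated 1 h at 4° C with Eu anti-His antibody (0.002 μM) in HEPES pH 7.5/MgCl2/Brij/DTT buffer; Kinase Tracer 236 (ATP-competitive probe, 0.1 μM final) added with compound. 1 h at room temperature; tracer displacement read by TR-FRET (665/615 nm).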
# Sequence of kinase domain of IRE1 alpha (His-tagged kinase dead construct KR, AA G547-L977, D688N) (O75460 547-977 D688N): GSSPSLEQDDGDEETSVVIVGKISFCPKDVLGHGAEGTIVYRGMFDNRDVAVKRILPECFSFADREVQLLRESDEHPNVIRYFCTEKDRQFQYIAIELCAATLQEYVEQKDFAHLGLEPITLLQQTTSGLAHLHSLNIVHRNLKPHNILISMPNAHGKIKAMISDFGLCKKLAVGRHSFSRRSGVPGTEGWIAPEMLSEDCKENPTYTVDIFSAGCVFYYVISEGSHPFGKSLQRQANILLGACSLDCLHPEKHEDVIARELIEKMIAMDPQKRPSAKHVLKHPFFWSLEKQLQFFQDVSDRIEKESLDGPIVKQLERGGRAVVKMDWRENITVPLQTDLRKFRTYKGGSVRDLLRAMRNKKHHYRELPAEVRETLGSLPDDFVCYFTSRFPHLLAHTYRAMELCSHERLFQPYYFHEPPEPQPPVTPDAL
row,Structure (SMILES),IC50 [nM]
1,"O=S(=O)(Cc1ccccc1F)Nc1ccc(Oc2ncccc2-c2ccnc(N[C@H]3CCCNC3)n2)c(F)c1F [Compound 146, (S)-N-(2,3-difluoro-4-((3-(2-(piperidin-3-ylamino)pyrimidin-4-yl)pyridin-2-yl)oxy)phenyl)-1-(2-fluorophenyl)methanesulfonamide hydrochloride]",4
2,"O=C(Nc1ccc(Oc2ncccc2-c2ccnc(N[C@H]3CCCNC3)n2)c(F)c1F)C1CC1 [Compound 147, (S)—N-(2,3-Difluoro-4-(3-(2-(piperidin-3-ylamino)pyrimidin-4-yl)pyridin-2-yloxy)phenyl)cyclopropanecarboxamide hydrochloride]",210
3,"CCC(F)(F)CS(=O)(=O)Nc1ccc(Oc2ncccc2-c2ccnc(N[C@H]3CCCNC3)n2)c(F)c1F [Compound 148, (S)-N-(2,3-Difluoro-4-((3-(2-(piperidin-3-ylamino)pyrimidin-4-yl)pyridin-2-yl)oxy)phenyl)-2,2-difluorobutane-1-sulfonamide hydrochloride]",6.5
4,"O=C(Nc1ccc(Oc2ncccc2-c2ccnc(N[C@H]3CCCNC3)n2)c(F)c1F)C1CC12CC2 (stereo partly drawn) [Compound 151, N-(2,3-difluoro-4-((3-(2-(((S)-piperidin-3-yl)amino)pyrimidin-4-yl)pyridin-2-yl)oxy)phenyl)spiro[2.2]pentane-1-carboxamide hydrochloride]",84
5,"O=S(=O)(Cc1ccccc1)Nc1c(F)cc(Oc2ncccc2-c2ccnc(N[C@H]3CCCNC3)n2)cc1F [Compound 152, (S)-N-(2,6-difluoro-4-((3-(2-(piperidin-3-ylamino)pyrimidin-4-yl)pyridin-2-yl)oxy)phenyl)-1-phenylmethanesulfonamide hydrochloride]",3.9
6,"Cc1cc(NS(=O)(=O)Cc2ccccc2)c(F)c(F)c1Oc1ncccc1-c1ccnc(N[C@H]2CCCNC2)n1 [Compound 155, (S)-N-(2,3-difluoro-5-methyl-4-((3-(2-(piperidin-3-ylamino)pyrimidin-4-yl)pyridin-2-yl)oxy)phenyl)-1-phenylmethanesulfonamide]",4.5
7,"O=S(=O)(Cc1ccccc1)Nc1cc(F)c(Oc2ncccc2-c2ccnc(N[C@H]3CCCNC3)n2)c(F)c1F [Compound 156, (S)-1-phenyl-N-(2,3,5-trifluoro-4-((3-(2-(piperidin-3-ylamino)pyrimidin-4-yl)pyridin-2-yl)oxy)phenyl)methanesulfonamide hydrochloride]",4.6
8,"O=S(=O)(Cc1ccccc1)Nc1ccc(Oc2ncccc2-c2ccnc(N[C@H]3CCCNC3)n2)c(F)c1 [Compound 159, (S)-N-(3-fluoro-4-((3-(2-(piperidin-3-ylamino)pyrimidin-4-yl)pyridin-2-yl)oxy)phenyl)-1-phenylmethanesulfonamide]",11
9,"Cc1cc(Oc2ncccc2-c2ccnc(N[C@H]3CCCNC3)n2)c(F)c(F)c1NS(=O)(=O)Cc1ccccc1 [Compound 160, (S)-N-(2,3-difluoro-6-methyl-4-((3-(2-(piperidin-3-ylamino)pyrimidin-4-yl)pyridin-2-yl)oxy)phenyl)-1-phenylmethanesulfonamide]",5.4
10,"Cc1c(Oc2ncccc2-c2ccnc(N[C@@H]3CNC[C@H](C)C3)n2)cc(F)c(NS(=O)(=O)Cc2ccccc2)c1F [Compound 164, N-(2,6-Difluoro-3-methyl-4-((3-(2-(((3S,5R)-5-methyl-3-piperidyl)amino)pyrimidin-4-yl)-2-pyridyl)oxy)phenyl)-1-phenyl-methanesulfonamide]",4
11,"N#Cc1ccc(CS(=O)(=O)Nc2ccc(Oc3ncccc3-c3ccnc(N[C@H]4CCCNC4)n3)c(F)c2F)cc1 [Compound 166, (S)-1-(4-cyanophcnyl)-N-(2,3-difluoro-4-((3-(2-(piperidin-3-ylamino)pyrimidin-4-yl)pyridin-2-yl)oxy)phenyl)methanesulfonamide]",3.5
12,"O=S(=O)(Cc1ccccc1)Nc1ccc(Oc2ncccc2-c2ccnc(N[C@H]3CCNC3)n2)c(F)c1F [Compound 167, (S)—N-(2,3-Difluoro-4-((3-(2-(pyrrolidin-3-ylamino)pyrimidin-4-yl)pyridin-2-yl)oxy)phenyl)-1-phenylmethanesulfonamide]",17
13,"CN1CCC(Nc2nccc(-c3cccnc3Oc3ccc(NS(=O)(=O)Cc4ccccc4)c(F)c3F)n2)CC1 [Compound 168, N-(2,3-difluoro-4-((3-(2-((1-methylpiperidin-4-yl)amino)pyrimidin-4-yl)pyridin-2-yl)oxy)phenyl)-1-phenylmethanesulfonamide]",67
14,"CN1CCC[C@H](Nc2nccc(-c3cccnc3Oc3ccc(NS(=O)(=O)Cc4ccccc4)c(F)c3F)n2)C1 [Compound 170, (S)-N-(2,3-difluoro-4-((3-(2-((1-methylpiperidin-3-yl)amino)pyrimidin-4-yl)pyridin-2-yl)oxy)phenyl)-1-phenylmethanesulfonamide]",11
15,"NCCNc1nccc(-c2cccnc2Oc2ccc(NS(=O)(=O)Cc3ccccc3)c(F)c2F)n1 [Compound 171, N-(4-((3-(2-((2-aminoethyl)amino)pyrimidin-4-yl)pyridin-2-yl)oxy)-2,3-difluorophenyl)-1-phenylmethanesulfonamide]",180
16,"CNCCNc1nccc(-c2cccnc2Oc2ccc(NS(=O)(=O)Cc3ccccc3)c(F)c2F)n1 [Compound 172, N-(2,3-difluoro-4-((3-(2-(2-(methylamino)ethylamino)pyrimidin-4-yl)-2-pyridyl)oxy)phenyl)-1-phenyl-methanesulfonamide]",42

# Further lines, results first:
row,IC50 [nM],Structure (SMILES)
1,7.8,"O=S(=O)(CC1CCCCC1)Nc1ccc(Oc2ncccc2-c2ccnc(N[C@H]3CCCNC3)n2)c(F)c1F [Compound 145, (S)-1-Cyclohexyl-N-(2,3-difluoro-4-((3-(2-(piperidin-3-ylamino)pyrimidin-4-yl)pyridin-2-yl)oxy)phenyl)methanesulfonamide hydrochloride]"
2,8.7,"CC(F)(F)CCS(=O)(=O)Nc1ccc(Oc2ncccc2-c2ccnc(N[C@H]3CCCNC3)n2)c(F)c1F [Compound 149, (S)-N-(2,3-difluoro-4-((3-(2-(piperidin-3-ylamino)pyrimidin-4-yl)pyridin-2-yl)oxy)phenyl)-3,3-difluorobutane-1-sulfonamide hydrochloride]"
3,3.8,"O=S(=O)(Cc1ccccc1)Nc1c(F)cc(Oc2ncccc2-c2ccnc(N[C@H]3CCCNC3)n2)c(F)c1F [Compound 153, (S)-1-Phenyl-N-(2,3,6-trifluoro-4-((3-(2-(piperidin-3-ylamino)pyrimidin-4-yl)pyridin-2-yl)oxy)phenyl)methanesulfonamide hydrochloride]"
4,3.8,"Cc1c(Oc2ncccc2-c2ccnc(N[C@H]3CCCNC3)n2)cc(F)c(NS(=O)(=O)Cc2ccccc2)c1F [Compound 154, (S)-N-(2,6-difluoro-3-methyl-4-(3-(2-(piperidin-3-ylamino)pyrimidin-4-yl)pyridin-2-yloxy)phenyl)(phenyl)methanesulfonamide hydrochloride]"
5,29,"Cc1cc(NS(=O)(=O)Cc2ccccc2)ccc1Oc1ncccc1-c1ccnc(N[C@H]2CCCNC2)n1 [Compound 157, (S)-N-(3-methyl-4-((3-(2-(piperidin-3-ylamino)pyrimidin-4-yl)pyridin-2-yl)oxy)phenyl)-1-phenylmethanesulfonamide]"
6,5.1,"Cc1cc(NS(=O)(=O)Cc2ccccc2)c(F)cc1Oc1ncccc1-c1ccnc(N[C@H]2CCCNC2)n1 [Compound 158, (S)-N-(2-fluoro-5-methyl-4-(3-(2-(piperidin-3-ylamino)pyrimidin-4-yl)pyridin-2-yloxy)phenyl)(phenyl)methanesulfonamide]"
7,4.2,"O=S(=O)(Cc1ccccc1)Nc1ccc(Oc2ncccc2-c2ccnc(N[C@H]3CCCNC3)n2)c(F)c1Cl [Compound 161, (S)—N-(2-Chloro-3-fluoro-4-((3-(2-(piperidin-3-ylamino)pyrimidin-4-yl)pyridin-2-yl)oxy)phenyl)-1-phenylmethanesulfonamide]"
8,6.9,"C[C@]1(F)CNC[C@@H](Nc2nccc(-c3cccnc3Oc3ccc(NS(=O)(=O)Cc4ccccc4)c(F)c3F)n2)C1 [Compound 162, N-(2,3-difluoro-4-((3-(2-(((3S,5R)-5-fluoro-5-methylpiperidin-3-yl)amino)pyrimidin-4-yl)pyridin-2-yl)oxy)phenyl)-1-phenylmethanesulfonamide]"
9,6.6,"N#Cc1c(NS(=O)(=O)Cc2ccccc2)ccc(Oc2ncccc2-c2ccnc(N[C@H]3CCCNC3)n2)c1F [Compound 163, (S)-N-(2-cyano-3-fluoro-4-((3-(2-(piperidin-3-ylamino)pyrimidin-4-yl)pyridin-2-yl)oxy)phenyl)-1-phenylmethanesulfonamide hydrochloride]"
10,2.7,"C[C@H]1CNC[C@@H](Nc2nccc(-c3cccnc3Oc3cc(F)c(NS(=O)(=O)Cc4ccccc4)c(F)c3F)n2)C1 [Compound 165, 1-phenyl-N-(2,3,6-trifluoro-4-((3-(2-(((3S,5R)-5-methyl-3-piperidyl)amino)pyrimidin-4-yl)-2-pyridyl)oxy)phenyl)methanesulfonamide]"
11,4.1,"N[C@H]1CC[C@H](Nc2nccc(-c3cccnc3Oc3ccc(NS(=O)(=O)Cc4ccccc4)c(F)c3F)n2)CC1 [Compound 169, N-(4-((3-(2-(((1r,4r)-4-Aminocyclohexyl)amino)pyrimidin-4-yl)pyridin-2-yl)oxy)-2,3-difluorophenyl)-1-phenylmethanesulfonamide]"
12,8.3,"O=S(=O)(CC1CCC1)Nc1ccc(Oc2ncccc2-c2ccnc(N[C@H]3CCCNC3)n2)c(F)c1F [Compound 173, (S)-1-cyclobutyl-N-(2,3-difluoro-4-((3-(2-(piperidin-3-ylamino)pyrimidin-4-yl)pyridin-2-yl)oxy)phenyl)methanesulfonamide]"
